How the values were obtained:
green foxtail [1] = assay: Soil treatment test for upland field; type: in vivo, Setaria viridis; parameters: key: 0 = normal development, 5 = all killed; settings: 500 g/ha, 3 weeks, glass house 25° C.
Outline: (§1)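 Pre-emergence soil spray, 500 g/ha, WP formulation in water + 0.05% surfactant; alluvial soil; glasshouse, avg 25° C, 3 wk. Score 0 (normal) to 5 (all killed) vs untreated.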

livid amaranth [2] = assay: Soil treatment test for upland field; type: in vivo, Amaranthus lividus; parameters: key: 0 = normal development, 5 = all killed; settings: 500 g/ha, 3 weeks, glass house 25° C.
Outline: as §1

blackgrass [3] = assay: Foliar spread test for upland field; type: in vivo, Alopecurus aegualis; parameters: key: 0 = normal development, 5 = all killed (6 ranks vs. untreated); settings: foliar spray, 500 ppm, 3 weeks, glass house 25° C.
Outline: (§2)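 Scores on a 0–5 scale (0 normal development, 5 all killed), relative to untreated controls, were taken 3 weeks post-treatment in a 25 °C glass house. Treatment was a uniform foliar spray at 500 ppm (0.5% surfactant) onto roughly 2-week-old soil-grown plants.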

solgum [4] = assay: Foliar spread test for upland field; type: in vivo; parameters: key: 0 = normal development, 5 = all killed (6 ranks vs. untreated); settings: foliar spray, 500 ppm, 3 weeks, glass house 25° C.
Outline: as §2

wheat [5] = assay: Foliar spread test for upland field; type: in vivo; parameters: key: 0 = normal development, 5 = all killed (6 ranks vs. untreated); settings: foliar spray, 500 ppm, 3 weeks, glass house 25° C.
Outline: as §2

sugar beat [6] = assay: Foliar spread test for upland field; type: in vivo; parameters: key: 0 = normal development, 5 = all killed (6 ranks vs. untreated); settings: foliar spray, 500 ppm, 3 weeks, glass house 25° C.
Outline: as §2

corn [7] = assay: Foliar spread test for upland field; type: in vivo; parameters: key: 0 = normal development, 5 = all killed (6 ranks vs. untreated); settings: foliar spray, 500 ppm, 3 weeks, glass house 25° C.
Outline: as §2

cotton = assay: Foliar spread test for upland field; type: in vivo; parameters: key: 0 = normal development, 5 = all killed (6 ranks vs. untreated); settings: foliar spray, 500 ppm, 3 weeks, glass house 25° C.
Outline: as §2

soybean = assay: Foliar spread test for upland field; type: in vivo; parameters: key: 0 = normal development, 5 = all killed (6 ranks vs. untreated); settings: foliar spray, 500 ppm, 3 weeks, glass house 25° C.
Outline: as §2

morning glory [8] = assay: Soil treatment test for upland field; type: in vivo, Ipomoea spps.; parameters: key: 0 = normal development, 5 = all killed; settings: 500 g/ha, 3 weeks, glass house 25° C.
Outline: as §1

morning glory [9] = assay: Foliar spread test for upland field; type: in vivo, Ipomoea spps.; parameters: key: 0 = normal development, 5 = all killed (6 ranks vs. untreated); settings: foliar spray, 500 ppm, 3 weeks, glass house 25° C.
Outline: as §2

barnyardgrjass = assay: Foliar spread test for upland field; type: in vivo, Eschinochloa crusgalli; parameters: key: 0 = normal development, 5 = all killed (6 ranks vs. untreated); settings: foliar spray, 500 ppm, 3 weeks, glass house 25° C.
Outline: as §2

common lambsquarters [10] = assay: Foliar spread test for upland field; type: in vivo, Chenopodium album; parameters: key: 0 = normal development, 5 = all killed (6 ranks vs. untreated); settings: foliar spray, 500 ppm, 3 weeks, glass house 25° C.
Outline: as §2

velvetleaf [11] = assay: Foliar spread test for upland field; type: in vivo, Abutilon theophrasti; parameters: key: 0 = normal development, 5 = all killed (6 ranks vs. untreated); settings: foliar spray, 500 ppm, 3 weeks, glass house 25° C.
Outline: as §2

annual bluegrass [12] = assay: Foliar spread test for upland field; type: in vivo, Poa annua; parameters: key: 0 = normal development, 5 = all killed (6 ranks vs. untreated); settings: foliar spray, 500 ppm, 3 weeks, glass house 25° C.
Outline: as §2

solgum [13] = assay: Soil treatment test for upland field; type: in vivo; parameters: key: 0 = normal development, 5 = all killed; settings: 500 g/ha, 3 weeks, glass house 25° C.
Outline: as §1

wheat [14] = assay: Soil treatment test for upland field; type: in vivo; parameters: key: 0 = normal development, 5 = all killed; settings: 500 g/ha, 3 weeks, glass house 25° C.
Outline: as §1

corn [15] = assay: Soil treatment test for upland field; type: in vivo; parameters: key: 0 = normal development, 5 = all killed; settings: 500 g/ha, 3 weeks, glass house 25° C.
Outline: as §1

Cyperus serotinus Rottb. = assay: Herbicidal test for paddy field; type: in vivo; settings: 500 g/ha, dropwise addition to paddy water at 1.5 leaf stage of barnyard grass; glass house 25° C., 3 weeks; rank 0-5 vs non-treated district
Description: (§3) Wagner pots, each having an area of 1/5000 are, were packed with Ube soil (alluvial soil) and planted with seeds or tubers of young rice plant, barnyard grass, bulrush, Cyperus serotinus Rottb., arrowhead and monochoria. Then, the pots were filled with water to a depth of 3 cm.
(§4) Each wettable powder of the desired Compounds (I) shown in Tables 1 to 21, 24, 25, 28 and 29 prepared in accordance with Example 2 was diluted with water containing a surfactant (0.05%) and subjected to dropwise addition treatment by using pipet so that an effective concentration of the compound (I) in each herbicide became 500 g/ha at 1.5 leaf stage of barnyard grass.
(§5) These plants were controlled in a glass house at an average temperature of 25° C. for 3 weeks, and then herbicidal effects thereof were investigated.
(§6) The herbicidal effects are evaluated according to the following 6 ranks as compared with non-treated district. (0: normal development, 1: Less damaged, 2: Slightly damaged, 3: Moderately damaged, 4: Severely damaged, 5: All killed). Incidentally, “-” in the column means not investigated.

annual bluegrass [16] = assay: Soil treatment test for upland field; type: in vivo, Poa annua; parameters: key: 0 = normal development, 5 = all killed; settings: 500 g/ha, 3 weeks, glass house 25° C.
Outline: as §1

common lambsquarters [17] = assay: Soil treatment test for upland field; type: in vivo, Chenopodium album; parameters: key: 0 = normal development, 5 = all killed; settings: 500 g/ha, 3 weeks, glass house 25° C.
Outline: as §1

Large crabgrass [18] = assay: Soil treatment test for upland field; type: in vivo, Digitaria adscendens; parameters: key: 0 = normal development, 5 = all killed; settings: 500 g/ha, 3 weeks, glass house 25° C.
Outline: as §1

blackgrass [19] = assay: Soil treatment test for upland field; type: in vivo, Alopecurus aegualis; parameters: key: 0 = normal development, 5 = all killed; settings: 500 g/ha, 3 weeks, glass house 25° C.
Outline: as §1

barnyard grass [20] = assay: Soil treatment test for upland field; type: in vivo, Eschinochloa crusgalli; parameters: key: 0 = normal development, 5 = all killed; settings: 500 g/ha, 3 weeks, glass house 25° C.
Outline: as §1

green foxtail [21] = assay: Foliar spread test for upland field; type: in vivo, Setaria viridis; parameters: key: 0 = normal development, 5 = all killed (6 ranks vs. untreated); settings: foliar spray, 500 ppm, 3 weeks, glass house 25° C.
Outline: as §2

Large crabgrass [22] = assay: Foliar spread test for upland field; type: in vivo, Digitaria adscendens; parameters: key: 0 = normal development, 5 = all killed (6 ranks vs. untreated); settings: foliar spray, 500 ppm, 3 weeks, glass house 25° C.
Outline: as §2

bulrush = assay: Herbicidal test for paddy field; type: in vivo, Scrips juncoides; settings: 500 g/ha, dropwise addition to paddy water at 1.5 leaf stage of barnyard grass; glass house 25° C., 3 weeks; rank 0-5 vs non-treated district
Description: as §3, §4, §5, §6

barnyard grass [23] = assay: Herbicidal test for paddy field; type: in vivo, Eschinochloa crusgalli; settings: 500 g/ha, dropwise addition to paddy water at 1.5 leaf stage of barnyard grass; glass house 25° C., 3 weeks; rank 0-5 vs non-treated district
Description: as §3, §4, §5, §6

livid amaranth [24] = assay: Foliar spread test for upland field; type: in vivo, Amaranthus lividus; parameters: key: 0 = normal development, 5 = all killed (6 ranks vs. untreated); settings: foliar spray, 500 ppm, 3 weeks, glass house 25° C.
Outline: as §2

velvetleaf [25] = assay: Soil treatment test for upland field; type: in vivo, Abutilon theophrasti; parameters: key: 0 = normal development, 5 = all killed; settings: 500 g/ha, 3 weeks, glass house 25° C.
Outline: as §1

sugar beat [26] = assay: Soil treatment test for upland field; type: in vivo; parameters: key: 0 = normal development, 5 = all killed; settings: 500 g/ha, 3 weeks, glass house 25° C.
Outline: as §1

Compound	Effects Green foxtail (green foxtail [1])	Effects Livid amaranth (livid amaranth [2])	Effects Blackgrass (blackgrass [3])	Effects Solgum (solgum [4])	Effects Wheat (wheat [5])	Effects Sugar beat (sugar beat [6])	Effects Corn (corn [7])	Effects Sotton (cotton)	Effects Soybean (soybean)	Effects Morning glory (morning glory [8])	Effects Morning glory (morning glory [9])	Effects Barnyardgrass (barnyardgrjass)	Effects Common lambsquarters (common lambsquarters [10])	Effects Velvetleaf (velvetleaf [11])	Effects Annual bluegrass (annual bluegrass [12])	Effects Solgum (solgum [13])	Effects Wheat (wheat [14])	Effects Corn (corn [15])	Effects Annual bluegrass (annual bluegrass [16])	Effects Common lambsquarters (common lambsquarters [17])	further results
FC(F)(F)c1cccc(C=Cc2nc3ccccc3o2)c1 [I-c-1]	5	5	1	1	1	3	2	2	5	1	5	1	3	2	1	1	0	1	5	5	Effects Cyperus serotinus Rottb. (Cyperus serotinus Rottb.): 3; Effects Large crabgrass (Large crabgrass [18]): 5; Effects Blackgrass (blackgrass [19]): 5; Effects Barnyardgrass (barnyard grass [20]): 5; Effects Green foxtail (green foxtail [21]): 3; Effects Large crabgrass (Large crabgrass [22]): 3; Effects Bulrush (bulrush): 3; Effects Barnyardgrass (barnyard grass [23]): 3; Effects Livid amaranth (livid amaranth [24]): 4
CCC(=Cc1cccc(C(F)(F)F)c1)c1nc2cc(F)ccc2o1 [I-c-42]	5	5	3	2	2	4	3	3	5	3	4	2	5	3	3	5	0	1	5	5	Effects Velvetleaf (velvetleaf [25]): 5; Effects Sugar beat (sugar beat [26]): 5; Effects Large crabgrass (Large crabgrass [18]): 5; Effects Blackgrass (blackgrass [19]): 5; Effects Barnyardgrass (barnyard grass [20]): 5; Effects Green foxtail (green foxtail [21]): 4; Effects Large crabgrass (Large crabgrass [22]): 4; Effects Bulrush (bulrush): 5; Effects Barnyardgrass (barnyard grass [23]): 5; Effects Livid amaranth (livid amaranth [24]): 5
CCC(=Cc1cccc(C(F)(F)F)c1)c1nc2cc(C)ccc2o1 [I-c-76]	5	5	2	2	2	4	2	3	5	1	5	2	4	3	2	3	0	1	5	5	Effects Velvetleaf (velvetleaf [25]): 5; Effects Sugar beat (sugar beat [26]): 0; Effects Large crabgrass (Large crabgrass [18]): 5; Effects Blackgrass (blackgrass [19]): 5; Effects Barnyardgrass (barnyard grass [20]): 4; Effects Green foxtail (green foxtail [21]): 4; Effects Large crabgrass (Large crabgrass [22]): 4; Effects Bulrush (bulrush): 3; Effects Barnyardgrass (barnyard grass [23]): 4; Effects Livid amaranth (livid amaranth [24]): 5

Reference: patent US7402548B2, “Benzoxazole compounds, process for producing the same and herbicides” (Kyoyu Agri Co., Ltd., priority 2000, dated 2008)
